Where “and” joins values, the source holds several entries; their conditions need not be identical. Equal values may be shown once. Read-outs that look alike come from different tables or passages of the source.
Tests used:
[1] = molecular target: central benzodiazepine receptor (CBR); conditions: read-out: Ki CBR; displacement of [^3H]flunitrazepam, rat cerebral cortex
Method: (§1) The binding assay was performed following a previously published procedure [22], with slight modifications.

TSPO-WT (HAB) = TSPO-WT (HAB) (Homo sapiens, UniProt P30536, T147A); assay: biochemical
TSPO-mutant A147T (LAB) = TSPO-mutant A147T (LAB) (Homo sapiens, UniProt P30536); assay: biochemical
TSPO [2] = molecular target: T1, TSPO (Rattus norvegicus, UniProt P16257); assay: biochemical
Method: as §1

TSPO [3] = molecular target: T1, TSPO
physchem = conditions: n-octanol/PBS
Method: (§2) After vortexing for 1 min, each tube was placed on a table at 25 °C for 3 min. Samples of each phase (100 μL) were counted for radioactivity using a gamma-counter. Log D is expressed as the logarithm of the ratio of the count of n-octanol to that of PBS.

[4] = normal mice, PET 90 min
Method: Normal male C57BL/6 mice (n = 4, 6–7 weeks old, Orientbio Inc.) were used to perform in vivo organ distribution and dosimetry studies (see methodological details in the SI).
All the mice (n = 4) were anesthetized with 2% isoflurane. […] The CT images were used to draw region of interest (ROI) on the following organs: the brain, heart, lung, liver, stomach, urinary bladder, intestine kidneys and adrenals. […] The accumulated activity for each organ were calculated by using the area under curve (AUC) of TACs.

TSPO [5] = molecular target: T1, TSPO; remark: listed apart in the source
From the text: Male Sprague–Dawley rats (7–8 weeks old, Orientbio Inc.) were used to create rat models of neuroinflammation and ischemic stroke (n = 4 for each model). […] An ischemic stroke rat model was generated via 60-min occlusion of the right middle cerebral artery (MCAO), as previously described [27]. […] In the case of ischemic stroke model, rats were anesthetized with 5% isoflurane in the presence of 30% nitrous oxide and 70% oxygen, and then were under anesthesia with 2% isoflurane in the presence of 30% nitrous oxide and 70% oxygen during MCAO surgery.
The PET imaging study was performed using a dedicated animal PET/CT scanner (NanoPET/CT; Mediso Inc., Budapest, Hungary) with a 10-cm axial field-of-view (FOV) and a 12-cm transaxial FOV. […]
(§3) The volumes of interest (VOIs) were drawn around the peak PET activity on the ipsilateral region in a coronal PET/CT slice, and symmetrically pasted into the contralateral side on the same slice to yield a contralateral VOI of identical volume and shape. […] Decay-corrected radioactivity in the VOI was expressed as the standardized uptake value (SUV), which was normalized to the injected radioactivity and body weight of the rat using PMOD software version 3.6 (PMOD Technologies Ltd., Zurich, Switzerland). […] The binding potential (BPND) was also calculated as a quantitative value, which represented the receptor binding with the radioligand. […]

in vitro [6] = conditions: rat, rat plasma
Method: (§4) Plasma protein binding (PPB) was measured using two plasma samples obtained from five rats and a healthy volunteer. […] The mixtures were transferred to the Amicon® Ultra 30 K device (Merck Millipore, USA), and centrifuged at 12,000 rpm for 15 min. […] The plasma-free fraction (fP) was calculated as fp = (APfree /APtotal)/(ASfree/AStotal).

[7] = not given; remark: listed apart in the source
[8] = 37 °C, 120 min
Method: Aliquots (0.2 mL) were collected at 0, 15, 30, 60, and 120 min and mixed with acetonitrile (0.2 mL), and then centrifuged at 3500 rpm for 5 min. The resulting supernatants were analyzed using a radio-TLC scanner with the developing solvent (50% ethyl acetate-hexane).

[9] = n-octanol/PBS pH 7.4, individual replicates
Method: as §2

in vitro [10] = conditions: human, human plasma
Method: as §4

TSPO [11] = molecular target: T1, TSPO; remark: listed apart in the source
Method: Male Sprague–Dawley rats (7–8 weeks old, Orientbio Inc.) were used to create rat models of neuroinflammation and ischemic stroke (n = 4 for each model). An acute neuroinflammation rat model was generated by injecting lipopolysaccharides (LPS, 50 μg) into the right striatum of rat brain according to our previous protocol [26]. […] In the case of LPS-induced neuroinflammatory model, rats were anesthetized with ketamine hydrochloride (50 mg/kg) and xylazine hydrochloride (0.2 mg/kg) before LPS injection.
The PET imaging study was performed using a dedicated animal PET/CT scanner (NanoPET/CT; Mediso Inc., Budapest, Hungary) with a 10-cm axial field-of-view (FOV) and a 12-cm transaxial FOV. Before PET imaging, the rats were anesthetized with 2% isoflurane. […]
as §3

T1 sequence (P16257 whole entry): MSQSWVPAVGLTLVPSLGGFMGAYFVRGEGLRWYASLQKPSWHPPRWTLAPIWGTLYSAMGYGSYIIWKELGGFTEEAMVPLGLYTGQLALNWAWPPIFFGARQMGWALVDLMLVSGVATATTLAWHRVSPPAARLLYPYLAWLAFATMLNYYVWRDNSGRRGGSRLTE
TSPO-WT (HAB), sequence (P30536 whole entry T147A): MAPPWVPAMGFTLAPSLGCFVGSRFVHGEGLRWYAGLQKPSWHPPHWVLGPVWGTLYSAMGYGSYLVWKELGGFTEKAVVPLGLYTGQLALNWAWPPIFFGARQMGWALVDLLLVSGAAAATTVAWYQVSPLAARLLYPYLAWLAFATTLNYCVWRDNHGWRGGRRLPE
TSPO-mutant A147T (LAB), sequence (P30536 whole entry, stated change not applied): as the sequence (P30536 whole entry T147A) above, with A147T counted along it

CCCN(CCC)C(=O)Cc1c(-c2ccc(F)cc2)nc2c(Cl)cc(Cl)cn12 [BS224]
Ki [1]: > 100000 nM
IC50 (TSPO-WT (HAB)): 590 ± 40 nM
IC50 (TSPO-mutant A147T (LAB)): 450 ± 20 nM
Ki (TSPO [2]): 0.51 ± 0.03 nM

CCCN(CCC)C(=O)Cc1c(-c2ccc(OCCF)cc2)nc2c(Cl)cc(Cl)cn12 [CB251]
Ki [1]: > 100000 nM

CN1C(=O)CN=C(c2ccccc2F)c2cc([N+](=O)[O-])ccc21 [Flunitrazepam]
Ki [1]: 6.2 ± 0.1 nM

CCC(C)N(C)C(=O)c1cc2ccccc2c(-c2ccccc2Cl)n1 (stereo not drawn) [PK 11195]
Ki [1]: > 100000 nM
effect on [^18F]BS224 radioactivity in brain slices (blocking) (TSPO [3]): significant reduction of radioactivity

CCCN(CCC)C(=O)Cc1c(-c2ccc([18F])cc2)nc2c(Cl)cc(Cl)cn12 [[^18F]BS224, 2-(-2-(4-[^18F]fluorophenyl)-6,8-dichloro-imidazo[1,2-a]pyridin-3-yl)-N,N-dipropylacetamide]
logD (physchem; pH 7.4, Log D (single measurements 1-5), n-octanol/PBS pH 7.4, individual replicates): 2.78
logD (physchem; pH 7.4, Log D, n-octanol/PBS pH 7.4, 25 °C, average n = 5): 2.78 ± 0.04
AUC Brain [4]: 201.75±19.25 %ID/g min
AUC Heart [4]: 442.73±84.59 %ID/g min
AUC Intestine [4]: 250.45±7.71 %ID/g min
AUC Kidney [4]: 1345.08±260.65 %ID/g min
AUC Liver [4]: 1102.68±140.38 %ID/g min
AUC Lung [4]: 403.48±82.21 %ID/g min
AUC Stomach [4]: 198.98±53.18 %ID/g min
AUC Urinary Bladder [4]: 91.44±21.23 %ID/g min
Cmax Brain [4]: 5.78±1.51 %ID/g
Cmax Heart [4]: 20.81±8.05 %ID/g
Cmax Intestine [4]: 3.66±0.19 %ID/g
Cmax Kidney [4]: 16.33±3.08 %ID/g
Cmax Liver [4]: 16.21±1.95 %ID/g
Cmax Lung [4]: 14.38±5.88 %ID/g
Cmax Stomach [4]: 3.12±0.81 %ID/g
Cmax Urinary Bladder [4]: 1.35±0.22 %ID/g
Tmax Brain [4]: 1.83 ± 0.68 min
Tmax Heart [4]: 0.83 ± 0.20 min
Tmax Intestine [4]: 38.96 ± 21.39 min
Tmax Kidney [4]: 64.38 ± 16.21 min
Tmax Liver [4]: 38.29 ± 20.60 min
Tmax Lung [4]: 0.71 ± 0.24 min
Tmax Stomach [4]: 41.88 ± 23.30 min
Tmax Urinary Bladder [4]: 45.94 ± 14.36 min
skull uptake (TSPO [5]; ischemic stroke model PET): not observed
BPND (TSPO [5]; ischemic stroke model, SRTM, contralateral side as reference): 1.57 ± 0.37
% in heart, Parent (30 min): Intact
% in kidneys, Parent (30 min): Intact
% in liver, Parent (30 min): 73.6% and 73.6 ± 5.9%
% in lung, Parent (30 min): Intact
% in plasma, Parent (30 min): 90.7 ± 0.8%
% in brain, Parent (30 min after i.v. injection, rat): Intact
% in heart, Parent (90 min): Intact
% in kidneys, Parent (90 min): Intact
% in liver, Parent (90 min): 53.1% and 53.1 ± 2.7%
% in lung, Parent (90 min): Intact
% in plasma, Parent (90 min): 69.2 ± 2.9%
% in brain, Parent (90 min after i.v. injection, rat): Intact
radioactivity in the femur (in vivo defluorination) (gamma counting, rat): no radioactivity could be detected
fraction unbound at 10 min, 1.19 MBq/mL (in vitro [6]): 0.064 ± 0.003
Effective dose (estimated whole-body human) ([7]; extrapolated from normal mouse data): 5.18 μSv/MBq and 05.18 ± 1.03 μSv/MBq
Estimated Human Absorbed Dose, Adrenals ([7]; from normal mouse data): 09.66 ± 2.52 µGy/MBq
Estimated Human Absorbed Dose, Brain ([7]; from normal mouse data): 04.87 ± 0.90 µGy/MBq
Estimated Human Absorbed Dose, Breast ([7]; from normal mouse data): 02.28 ± 0.60 µGy/MBq
Estimated Human Absorbed Dose, Colon wall ([7]; from normal mouse data): 02.79 ± 0.55 µGy/MBq
Estimated Human Absorbed Dose, ET region ([7]; from normal mouse data): 00.75 ± 0.14 µGy/MBq
Estimated Human Absorbed Dose, Endosteum (bone surface) ([7]; from normal mouse data): 00.91 ± 0.19 µGy/MBq
Estimated Human Absorbed Dose, Eye lenses ([7]; from normal mouse data): 00.52 ± 0.09 µGy/MBq
Estimated Human Absorbed Dose, Gallbladder wall ([7]; from normal mouse data): 14.98 ± 3.89 µGy/MBq
Estimated Human Absorbed Dose, Heart wall ([7]; from normal mouse data): 10.54 ± 3.14 µGy/MBq
Estimated Human Absorbed Dose, Kidneys ([7]; from normal mouse data): 26.23 ± 8.91 µGy/MBq
Estimated Human Absorbed Dose, Liver ([7]; from normal mouse data): 28.88 ± 7.70 µGy/MBq
Estimated Human Absorbed Dose, Lung ([7]; from normal mouse data): 07.99 ± 2.42 µGy/MBq
Estimated Human Absorbed Dose, Lymphatic nodes ([7]; from normal mouse data): 02.60 ± 0.55 µGy/MBq
Estimated Human Absorbed Dose, Muscle ([7]; from normal mouse data): 00.77 ± 0.17 µGy/MBq
Estimated Human Absorbed Dose, Oesophagus ([7]; from normal mouse data): 03.90 ± 1.04 µGy/MBq
Estimated Human Absorbed Dose, Oral mucosa ([7]; from normal mouse data): 00.50 ± 0.09 µGy/MBq
Estimated Human Absorbed Dose, Pancreas ([7]; from normal mouse data): 07.79 ± 1.88 µGy/MBq
Estimated Human Absorbed Dose, Prostate ([7]; from normal mouse data): 00.43 ± 0.05 µGy/MBq
Estimated Human Absorbed Dose, Red (active) bone marrow ([7]; from normal mouse data): 02.01 ± 0.45 µGy/MBq
Estimated Human Absorbed Dose, Salivary glands ([7]; from normal mouse data): 00.49 ± 0.09 µGy/MBq
Estimated Human Absorbed Dose, Skin ([7]; from normal mouse data): 00.54 ± 0.12 µGy/MBq
Estimated Human Absorbed Dose, Small intestine wall ([7]; from normal mouse data): 07.30 ± 0.29 µGy/MBq
Estimated Human Absorbed Dose, Spleen ([7]; from normal mouse data): 02.90 ± 0.71 µGy/MBq
Estimated Human Absorbed Dose, Stomach wall ([7]; from normal mouse data): 09.06 ± 3.12 µGy/MBq
Estimated Human Absorbed Dose, Testes ([7]; from normal mouse data): 00.06 ± 0.00 µGy/MBq
Estimated Human Absorbed Dose, Thymus ([7]; from normal mouse data): 01.88 ± 0.52 µGy/MBq
Estimated Human Absorbed Dose, Thyroid ([7]; from normal mouse data): 00.95 ± 0.25 µGy/MBq
Estimated Human Absorbed Dose, Urinary bladder wall ([7]; from normal mouse data): 09.46 ± 2.73 µGy/MBq
parent compound remained intact in human serum [8]: over 99%
Log D (single measurements 1-5) [9]: 2.754 and 2.735
fraction unbound at 10 min, 1.19 MBq/mL (in vitro [10]): 0.049 ± 0.005
skull uptake (TSPO [11]; LPS model PET): not observed
BPND (TSPO [11]; LPS model, SRTM, contralateral side as reference): 1.43 ± 0.17
